Broadly, the Kd is the equilibrium constant for the complex coming apart.

The values that follow come from US20100249172A1, “9-CHLORO NOSCAPINE AND ITS USE IN TREATING CANCERS, INCLUDING DRUG-RESISTANT CANCERS” (EMORY UNIVERSITY, priority 2007, published 2010).

The subject of assay [1] is MCF-7 cells. Description: Cell cycle analysis by flow cytometry (propidium iodide). The assay is classed as cell-based, human. The note with it: for G0/G1 % / G2/M % / S % / Sub-G1 %: mean ± S.E.M.; for accumulation of cells in the G2/M phase (in words): 24 hours; for percent sub-G1 cells compared with noscapine: lower doses (5 μM and 10 μM), 72 hours. The protocol:
The flow cytometric evaluation of the cell cycle status was performed as described previously. Briefly, 2×10^6 cells were centrifuged, washed twice with ice-cold PBS, and fixed in 70% ethanol. Tubes containing the cell pellets were stored at 4° C. for at least 24 hours. Cells were then centrifuged at 1000×g for 10 min and the supernatant was discarded. The pellets were washed twice with 5 ml of PBS and then stained with 0.5 ml of propidium iodide (0.1% in 0.6% Triton-X in PBS) and 0.5 ml of RNase A (2 mg/ml) for 45 minutes in dark. Samples were then analyzed on a FACSCalibur flow cytometer (Beckman Coulter Inc., Fullerton, Calif.).
To investigate the precise mechanisms of cell death, the effect of 9-cloro-noscapine and other halogenated noscapine analogs on percent G2/M cells (mitotic index) and percent sub-G1 cells (apoptotic index) was examined as a function of dose and time in MCF-7 cells using fluorescence activated cell sorting (FACS) analysis. The effect of all compounds including noscapine was evaluated at three doses-5 μM, 10 μM and 25 μM for 0, 24, 48 and 72 hours of drug treatment. […] Fluorescently labeled DNA is a good indicator of cell cycle progression and cell death. An unreplicated complement of diploid (2N) DNA cells represents the G1 phase while duplicated tetraploid (4N) DNA cells represent G2 and M phases. Cells in the process of DNA duplication between diploid and tetraploid peaks represent S phase when DNA is being synthesized. Less than diploid DNA appears in populations of dying cells that degrade their DNA to different extents. Treatment of MCF-7 cells with these compounds for 0, 24, 48 and 72 hours led to profound perturbations of the cell cycle profile at 25 μM (FIGS. 3 A-D). […] The distribution of cell population over G0/G1, S, G2/M and sub-G1 phases of the cell cycle for 25 μM concentration is shown in Table 1.

Assay [2] addresses tubulin. The settings on record: literature value [18]; read-out: dissociation constant (Kd) for binding to tubulin; cited from earlier work.

For the compound `COc1ccc2c(c1OC)C(=O)O[C@@H]2[C@H]1c2c(c(F)c3c(c2OC)OCO3)CCN1C` [9-F-nos], the G0/G1 % in assay [1] (25 μM, 0 h) amounted to 67.7 ± 5.6%; in assay [1] (25 μM, 24 h) it was 10.8 ± 2.4%; in assay [1] (25 μM, 48 h) it was 7.9 ± 2.8%; in assay [1] (25 μM, 72 h), 5.2 ± 2.2%. Moreover, the G2/M % in assay [1] (25 μM, 0 h) is listed as 18.5 ± 2.2%; in assay [1] (25 μM, 24 h), 65.9 ± 4.4%; in assay [1] (25 μM, 48 h), 43.7 ± 2.9%; in assay [1] (25 μM, 72 h), 34.4 ± 3.4%. Besides, the S % in assay [1] (25 μM, 0 h) turned out to be 11.9 ± 1.5%; in assay [1] (25 μM, 24 h), 3.8 ± 1.1%; in assay [1] (25 μM, 48 h), 3.5 ± 0.8%; in assay [1] (25 μM, 72 h) it was 3.6 ± 1.5%. Also, the Sub-G1 % was determined as 0.2 ± 0.04% in assay [1] (25 μM, 0 h); 6.8 ± 2.1% in assay [1] (25 μM, 24 h); 34.5 ± 2.5% in assay [1] (25 μM, 48 h); 48.6 ± 3.3% in assay [1] (25 μM, 72 h). Also, in assay [1] (25 μM), the “accumulation of cells in the G2/M phase (in words)” value is “massive accumulation of cells in the G2/M phase”. Moreover, the “percent sub-G1 cells compared with noscapine” value in assay [1] is recorded as “higher”.
`COc1ccc2c(c1OC)C(=O)O[C@@H]2[C@H]1c2c(c(I)c3c(c2OC)OCO3)CCN1C` [9-I-nos]: in assay [1] (25 μM), the “sub-G1 population compared with noscapine” value was “slightly lower”. In addition, in assay [1] (25 μM, 0 h), the G0/G1 % came out at 60.6 ± 4.6%, the G2/M % is recorded as 23.1 ± 3.7%, the S % is reported as 13.9 ± 2.3% and the Sub-G1 % is recorded as 0.3 ± 0.2%. In assay [1] (25 μM, 24 h), this compound showed a G0/G1 % of 17 ± 2.3%, a G2/M % of 44.5 ± 5.1%, a S % of 3.1 ± 1.3% and a Sub-G1 % of 7.7 ± 1.7%. In assay [1] (25 μM, 48 h), the G0/G1 % is on record as 15.4 ± 4.5%, the G2/M % is on record as 25.9 ± 4.1%, the S % was 2.9 ± 0.6% and the Sub-G1 % is 28.1 ± 3.1%. In addition, in assay [1] (25 μM, 72 h), the G0/G1 % is listed as 17 ± 1.9%, the G2/M % was 20.7 ± 2.2%, the S % came to 4.9 ± 2.2% and the Sub-G1 % worked out at 30.1 ± 3.1%.
For the compound `COc1ccc2c(c1OC)C(=O)O[C@@H]2[C@H]1c2c(c(Br)c3c(c2OC)OCO3)CCN1C` [9-Br-nos], in assay [1] (25 μM, 0 h), the G0/G1 % is 53.3 ± 2.8%, the G2/M % is 28.9 ± 4.4%, the S % was determined as 12.7 ± 1.8% and the Sub-G1 % is 0.2 ± 0.1%. In assay [1] (25 μM, 24 h), the G0/G1 % is 10.4 ± 1.8%, the G2/M % is on record as 61.9 ± 3.6%, the S % is on record as 3.4 ± 1.2% and the Sub-G1 % was determined as 6.9 ± 2.4%. Besides, the “accumulation of cells in the G2/M phase (in words)” value in assay [1] (25 μM) is listed as “massive accumulation of cells in the G2/M phase”. In assay [1] (25 μM, 48 h), this compound returned a G0/G1 % of 6.5 ± 2.5%, a G2/M % of 43.8 ± 3.4%, a S % of 2.8 ± 0.7% and a Sub-G1 % of 35.1 ± 3.5%. In addition, in assay [1] (25 μM, 72 h), the G0/G1 % is on record as 4.6 ± 2.1%, the G2/M % is 33.7 ± 3.5% and the S % came to 2.4 ± 1.6%. Besides, in assay [1], the “percent sub-G1 cells compared with noscapine” value was “higher”.
Take `COc1ccc2c(c1OC)C(=O)O[C@@H]2[C@H]1c2c(cc3c(c2OC)OCO3)CCN1C` [Nos, (S)-6,7-dimethoxy-3-((R)-4-methoxy-6-methyl-5,6,7,8-tetrahydro[1,3]-dioxolo-[4,5-g]isoquinolin-5-yl)isobenzo-furan-1(3H)-one, reference compound]: in assay [1] (25 μM, 0 h), the G0/G1 % turned out to be 54.8 ± 0.03%, the G2/M % was 29.9 ± 2.2%, the S % was 13.2 ± 0.2% and the Sub-G1 % is recorded as 0.2 ± 0.03%. In assay [1] (25 μM, 24 h), this compound came in with a G0/G1 % of 18.3 ± 3.3%, a G2/M % of 50.2 ± 3.6%, a S % of 3.4 ± 0.8% and a Sub-G1 % of 10.2 ± 1.2%. In assay [1] (25 μM, 48 h), this compound had a G0/G1 % of 19.8 ± 1.9%, a G2/M % of 28.07 ± 0.2%, a S % of 4.1 ± 0.6% and a Sub-G1 % of 36.8 ± 3.7%. In assay [1] (25 μM, 72 h), this compound gave a G0/G1 % of 20.5 ± 0.2%, a G2/M % of 26.3 ± 0.2%, a S % of 7.06 ± 0.2% and a Sub-G1 % of 36.9 ± 0.2%. Besides, in assay [2], the Kd is 144 ± 2.8 µM.
